Results reported in patent publication US6737383B1, “Herbicidal oxadiazolidines” (priority 1999, dated 2004).

Tests used:
bedstraw = assay: Test B pre/postemergence bedstraw; assay type: in vivo, Galium aparine
Method in brief: (§1)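 Test chemicals in a non-phytotoxic solvent mixture with surfactant were sprayed preemergence onto planted seeds and postemergence onto plants 2 to 18 cm tall (1- to 4-leaf stage). After twelve to sixteen days in a greenhouse, injury was visually rated against untreated controls from 0 (no effect) to 10 (complete control).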

surinam grass = assay: Test B pre/postemergence surinam grass; assay type: in vivo, Brachiaria decumbens
Method in brief: as §1

cocklebur = assay: Test B pre/postemergence cocklebur; assay type: in vivo, Xanthium strumarium
Method in brief: as §1

corn = assay: Test B pre/postemergence corn; assay type: in vivo, Zea mays
Method in brief: as §1

giant foxtail = assay: Test B pre/postemergence giant foxtail; assay type: in vivo, Setaria faberii
Method in brief: as §1

pigweed = assay: Test B pre/postemergence pigweed; assay type: in vivo, Amaranthus retroflexus
Method in brief: as §1

rape = assay: Test B pre/postemergence rape; assay type: in vivo, Brassica napus
Method in brief: as §1

soybean = assay: Test B pre/postemergence soybean; assay type: in vivo, Glycine max
Method in brief: as §1

sugar beet = assay: Test B pre/postemergence sugar beet; assay type: in vivo, Beta vulgaris
Method in brief: as §1

velvetleaf = assay: Test B pre/postemergence velvetleaf; assay type: in vivo, Abutilon theophrasti
Method in brief: as §1

wheat = assay: Test B pre/postemergence wheat; assay type: in vivo, Triticum aestivum
Method in brief: as §1

wild oat = assay: Test B pre/postemergence wild oat; assay type: in vivo, Avena fatua
Method in brief: as §1

purple nutsedge = assay: Test B pre/postemergence purple nutsedge; assay type: in vivo, Cyperus rotundus
Method in brief: as §1

rice = assay: Test B flood test rice; assay type: in vivo, Oryza sativa
Method in brief: (§2)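 Plants were grown to the 2-leaf stage before treatment with test chemical, then held in a greenhouse for twelve to sixteen days. Injury was visually rated against untreated controls on a 0–10 scale, where 0 is no effect and 10 is complete control.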

smallflower flatsedge = assay: Test B flood test smallflower flatsedge; assay type: in vivo, Cyperus difformis
Method in brief: as §2

duck salad = assay: Test B flood test duck salad; assay type: in vivo, Heteranthera limosa
Method in brief: as §2

[1] = Postemergence, Rate 125 g/ha, scale 0 to 10, 0 is no effect, 10 is complete control
[2] = Preemergence, Rate 62 g/ha, scale of 0 to 10 where 0 is no effect and 10 is complete control
[3] = Preemergence, Rate 250 g/ha, scale of 0 to 10 where 0 is no effect and 10 is complete control
[4] = Rate 62 g/ha, Postemergence, scale 0 to 10 (0 no effect, 10 complete control)
[5] = Rate 250 g/ha, Postemergence, scale of 0 to 10 where 0 is no effect and 10 is complete control
[6] = Rate 500 g/ha, Postemergence, scale 0 to 10, 0 no effect, 10 complete control
[7] = Preemergence, Rate 500 g/ha, scale of 0 to 10 where 0 is no effect and 10 is complete control
[8] = Rate 62 g/ha, headed Pre-emergence (flood test species), scale 0 to 10 (0 no effect, 10 complete control)
[9] = Rate 125 g/ha, Pre-emergence, flood test species, scale 0 to 10 where 0 is no effect and 10 is complete control
[10] = Rate 250 g/ha, Pre-emergence, flood-test species, scale 0 to 10, 0 is no effect, 10 is complete control
[11] = Rate 500 g/ha, Pre-emergence, flood test species, scale 0 to 10 (0 no effect, 10 complete control)

CC(C)N(C(=O)n1oc(=O)n(-c2ccc3ccccc3c2)c1=O)c1ccc(F)cc1F [Compound 335]
1: Soybean plant response rating (soybean; [4])
10: Giant foxtail plant response rating (giant foxtail; [3]) | Giant foxtail plant response rating (giant foxtail; [7])
2: Giant foxtail plant response rating (giant foxtail; [2]) | Plant response rating, Soybean (soybean; [1]) | Plant response rating, Soybean (soybean; [6])
0: Plant response rating, Bedstraw (bedstraw; [1]) | Bedstraw plant response rating (bedstraw; [2]) | Bedstraw plant response rating (0 to 10 scale) (bedstraw; Preemergence, Rate 125 g/ha) | Bedstraw plant response rating (bedstraw; [3]) | Bedstraw plant response rating (bedstraw; [4]) | Plant response rating, Bedstraw (bedstraw; [5]) | Plant response rating, B. signalgrass (surinam grass; [1]) | B. signalgrass plant response rating (surinam grass; [2]) | B. signalgrass plant response rating (0 to 10 scale, 0 is no effect, 10 is complete control) (surinam grass; Preemergence, Rate 125 g/ha) | B. signalgrass plant response rating (surinam grass; [3]) | B. signalgrass plant response rating (surinam grass; [7]) | B. signalgrass plant response rating (surinam grass; [4]) | Plant response rating, B. signalgrass (surinam grass; [5]) | Plant response rating, B. signalgrass (surinam grass; [6]) | Plant response rating, Cocklebur (cocklebur; [1]) | Cocklebur plant response rating (cocklebur; [2]) | Cocklebur plant response rating (0 to 10 scale) (cocklebur; Preemergence, Rate 125 g/ha) | Cocklebur plant response rating (cocklebur; [3]) | Cocklebur plant response rating (cocklebur; [7]) | Cocklebur plant response rating (cocklebur; [4]) | Plant response rating, Cocklebur (cocklebur; [6]) | Plant response rating, Corn (corn; [1]) | Corn plant response rating (corn; [2]) | Corn plant response rating (0 to 10 scale) (corn; Preemergence, Rate 125 g/ha) | Corn plant response rating (corn; [3]) | Corn plant response rating (corn; [7]) | Corn plant response rating (corn; [4]) | Plant response rating, Corn (corn; [6]) | Plant response rating, Giant foxtail (giant foxtail; [1]) | Giant foxtail plant response rating (giant foxtail; [4]) | Plant response rating, Giant foxtail (giant foxtail; [6]) | Plant response rating, Redroot pigweed (pigweed; [1]) | Redroot pigweed plant response rating (pigweed; [2]) | Redroot pigweed plant response rating (0 to 10 scale) (pigweed; Preemergence, Rate 125 g/ha) | Redroot pigweed plant response rating (pigweed; [3]) | Redroot pigweed plant response rating (pigweed; [7]) | Redroot pigweed plant response rating (pigweed; [4]) | Plant response rating, Redroot pigweed (pigweed; [6]) | Plant response rating, Rape (rape; [1]) | Rape plant response rating (rape; [2]) | Rape plant response rating (0 to 10 scale) (rape; Preemergence, Rate 125 g/ha) | Rape plant response rating (rape; [3]) | Rape plant response rating (rape; [7]) | Rape plant response rating (rape; [4]) | Plant response rating, Rape (rape; [6]) | Soybean plant response rating (soybean; [2]) | Soybean plant response rating (0 to 10 scale) (soybean; Preemergence, Rate 125 g/ha) | Soybean plant response rating (soybean; [3]) | Soybean plant response rating (soybean; [7]) | Plant response rating, Sugarbeets (sugar beet; [1]) | Sugarbeets plant response rating (sugar beet; [2]) | Sugarbeets plant response rating (0 to 10 scale) (sugar beet; Preemergence, Rate 125 g/ha) | Sugarbeets plant response rating (sugar beet; [3]) | Sugarbeets plant response rating (sugar beet; [7]) | Sugarbeets plant response rating (sugar beet; [4]) | Plant response rating, Sugarbeets (sugar beet; [6]) | Plant response rating, Velvetleaf (velvetleaf; [1]) | Velvetleaf plant response rating (velvetleaf; [2]) | Velvetleaf plant response rating (0 to 10 scale) (velvetleaf; Preemergence, Rate 125 g/ha) | Velvetleaf plant response rating (velvetleaf; [3]) | Velvetleaf plant response rating (velvetleaf; [7]) | Velvetleaf plant response rating (velvetleaf; [4]) | Plant response rating, Velvetleaf (velvetleaf; [6]) | Plant response rating, Wheat (wheat; [1]) | Wheat plant response rating (wheat; [2]) | Wheat plant response rating (0 to 10 scale) (wheat; Preemergence, Rate 125 g/ha) | Wheat plant response rating (wheat; [3]) | Wheat plant response rating (wheat; [7]) | Wheat plant response rating (wheat; [4]) | Plant response rating, Wheat (wheat; [6]) | Plant response rating, Wild oats (wild oat; [1]) | Wild oats plant response rating (wild oat; [2]) | Wild oats plant response rating (0 to 10 scale) (wild oat; Preemergence, Rate 125 g/ha) | Wild oats plant response rating (wild oat; [3]) | Wild oats plant response rating (wild oat; [7]) | Wild oats plant response rating (wild oat; [4]) | Plant response rating, Wild oats (wild oat; [6]) | Plant response rating, Nutsedge (purple nutsedge; [1]) | Nutsedge plant response rating (purple nutsedge; [2]) | Nutsedge plant response rating (0 to 10 scale) (purple nutsedge; Preemergence, Rate 125 g/ha) | Nutsedge plant response rating (purple nutsedge; [3]) | Nutsedge plant response rating (purple nutsedge; [7]) | Nutsedge plant response rating (purple nutsedge; [4]) | Plant response rating, Nutsedge (purple nutsedge; [6]) | Rice plant response rating (rice; [8]) | Rice plant response rating (rice; [9]) | Rice plant response rating (rice; [10]) | Rice plant response rating (rice; [11]) | S. Flatsedge plant response rating (smallflower flatsedge; [8]) | S. Flatsedge plant response rating (smallflower flatsedge; [9]) | S. Flatsedge plant response rating (smallflower flatsedge; [10]) | S. Flatsedge plant response rating (smallflower flatsedge; [11]) | Ducksalad plant response rating (duck salad; [8]) | Ducksalad plant response rating (duck salad; [9]) | Ducksalad plant response rating (duck salad; [10]) | Ducksalad plant response rating (duck salad; [11])
4: Plant response rating, Bedstraw (bedstraw; [6]) | Giant foxtail plant response rating (0 to 10 scale) (giant foxtail; Preemergence, Rate 125 g/ha)
